Results taken from PMC7238120, “Strong and Selective Inhibitory Effects of the Biflavonoid Selamariscina A against CYP2C8 and CYP2C9 Enzyme Activities in Human Liver Microsomes” (Pharmaceutics, 2020).

How the values were obtained:
CYP2C9 = CYP2C9 (Homo sapiens, UniProt P11712); conditions: compared with diclofenac hydroxylase inhibition; S-mephenytoin 25 µM printed as substrate; read-out: IC50 reported by von Moltke et al. (2004); cited from earlier work
UGT1A1 = molecular target: T1, UGT1A1 (Homo sapiens, UniProt P22309); assay: Inhibition of UGT1A1 (SN-38 glucuronidation) in human liver microsomes; assay type: in vitro ADME; parameters: tissue XenoTech XTreme 200; host or cells: pooled human liver microsomes; conditions: substrate SN-38; HLMs 0.25 mg/mL; average ± standard error
T1 sequence (P22309 26-533): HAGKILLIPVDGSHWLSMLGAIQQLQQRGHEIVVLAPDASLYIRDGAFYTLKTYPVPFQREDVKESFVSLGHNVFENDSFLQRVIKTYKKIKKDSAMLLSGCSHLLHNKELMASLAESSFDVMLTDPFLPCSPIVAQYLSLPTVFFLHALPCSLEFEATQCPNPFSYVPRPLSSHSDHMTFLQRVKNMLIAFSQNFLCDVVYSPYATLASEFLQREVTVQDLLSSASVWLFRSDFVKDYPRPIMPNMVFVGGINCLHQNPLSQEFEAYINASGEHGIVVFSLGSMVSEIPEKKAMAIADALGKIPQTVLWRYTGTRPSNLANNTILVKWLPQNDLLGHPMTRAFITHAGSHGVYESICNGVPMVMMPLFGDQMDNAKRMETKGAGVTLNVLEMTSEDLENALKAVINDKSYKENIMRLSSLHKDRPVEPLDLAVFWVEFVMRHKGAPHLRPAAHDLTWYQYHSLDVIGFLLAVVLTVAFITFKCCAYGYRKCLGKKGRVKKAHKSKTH
Description: The ability of selamariscina A to inhibit the metabolism of six UGT enzyme probe substrates was evaluated using previously developed methods with minor modifications. The microsomal incubation was performed by dividing the non-interactive substrate cocktail sets (set A included SN-38 for UGT1A1, CDCA for UGT1A3 and TFP for UGT1A4 while set B included N-SER for UGT1A6, MPA for UGT1A9 and NX for UGT2B7) (Table 2). In brief, HLMs (0.25 mg/mL) were activated by incubation in the presence of alamethicin (25 µg/mL) for 15 min on ice. After the addition of UGT probe substrates and inhibitor (0, 0.5, 2, 5, 20 and 50 μM), the incubation mixtures were pre-incubated at 37 °C for 5 min. […] After centrifugation at 18,000 g (5 min, 4 °C), aliquots of supernatants were analyzed by LC–MS/MS. […]
All metabolites and the IS were separated on a Kinetex XB-C18 column (100 × 2.10 mm, 2.6 μm, 100 Å; Phenomenex, Torrance, CA, USA) and analyzed using a Shimadzu LCMS 8060 triple-quadrupole mass spectrometer coupled with a Nexera X2 ultra high-performance liquid chromatography system (Shimadzu, Kyoto, Japan) equipped with an electrospray ionization interface. […] Quantitation was conducted in selected reaction monitoring (SRM) modes with the precursor-to-product ion transition for each metabolite (Table 1 and Table 2).
We analyzed the data with Shimadzu LabSolution LC–MS software. […]

[1] = test system: the other eight P450 enzymes (isoforms other than CYP2C8); assay: Nine-P450 cocktail inhibition in human liver microsomes, statements on the other P450 isoforms; assay type: in vitro ADME; conditions: human, pooled human liver microsomes; isoforms other than CYP2C8; HLMs
Description: (§1) The inhibitory potential of the five biflavonoids on the metabolism of nine P450 probe substrates was evaluated using previously developed methods with minor modifications. Biflavonoids were dissolved in methanol. The final concentration of methanol in the incubation mixture was 1.0% (v/v). We used these P450 probe substrates: phenacetin for CYP1A2, coumarin for CYP2A6, bupropion for CYP2B6, amodiaquine for CYP2C8, diclofenac for CYP2C9, omeprazole for CYP2C19, dextromethorphan for CYP2D6, chlorzoxazone for CYP2E1 and midazolam for CYP3A (Table 1). The incubation mixtures containing pooled human liver microsomes (HLMs, XTreme 200, XenoTech), P450 probe substrates, and inhibitor (0~20 µM) were pre-incubated at 37 °C for 5 min. The concentration range of the inhibitor varied (0, 0.002, 0.005, 0.02, 0.05, and 0.2 µM for CYP2C8; 0, 0.02, 0.05, 0.2, 0.5, and 2 µM for CYP2C9; 0, 0.5, 2, 5, 10, and 20 µM for other P450 isoforms). After pre-incubation, a reduced nicotinamide adenine dinucleotide phosphate (NADPH) generation system containing 1 unit/ml G6PDH, 1.3 mM β- nicotinamide adenine dinucleotide phosphate (β- NADP^+), 3.3 mM MgCl2, and 3.3 mM G6P was added to initiate a reaction, and further incubated for 10 min at 37 °C. The reaction was stopped by adding 50 μL of ice-cold acetonitrile containing 7 nM trimipramine (internal standard, IS). After centrifugation at 18,000 g (5 min, 4 °C), aliquots of supernatants were analyzed by LC–MS/MS (Shimadzu LCMS 8060 system, Shimadzu, Kyoto, Japan). All microsomal incubations were conducted in triplicate.
(§2) All metabolites and the IS were separated on a Kinetex XB-C18 column (100 × 2.10 mm, 2.6 μm, 100 Å; Phenomenex, Torrance, CA, USA) and analyzed using a Shimadzu LCMS 8060 triple-quadrupole mass spectrometer coupled with a Nexera X2 ultra high-performance liquid chromatography system (Shimadzu, Kyoto, Japan) equipped with an electrospray ionization interface. The mobile phase consisted of 0.1% formic acid in water (A) and 0.1% formic acid in acetonitrile (B). […] Electrospray ionization was performed in positive-ion mode at 4000 V or in negative-ion mode at −3500 V. The optimum operating conditions were determined as follows: vaporizer temperature, 300 °C; capillary temperature, 350 °C; collision gas (argon) pressure, 1.5 mTorr. Quantitation was conducted in selected reaction monitoring (SRM) modes with the precursor-to-product ion transition for each metabolite (Table 1 and Table 2).
(§3) We analyzed the data with Shimadzu LabSolution LC–MS software. The IC50 values were calculated by WinNonlin software (Pharsight, Mountain View, CA, USA). […]

[2] = test system: CYP2C8 and CYP2C9 versus seven other P450s (CYP1A2, 2A6, 2B6, 2C19, 2D6, 2E1, 3A); assay: as above; assay type: in vitro ADME; conditions: human, pooled human liver microsomes; amodiaquine and diclofenac activities versus seven other P450s
Description: as §1, §2, §3

Chain of CYP2C9 (P11712 whole entry): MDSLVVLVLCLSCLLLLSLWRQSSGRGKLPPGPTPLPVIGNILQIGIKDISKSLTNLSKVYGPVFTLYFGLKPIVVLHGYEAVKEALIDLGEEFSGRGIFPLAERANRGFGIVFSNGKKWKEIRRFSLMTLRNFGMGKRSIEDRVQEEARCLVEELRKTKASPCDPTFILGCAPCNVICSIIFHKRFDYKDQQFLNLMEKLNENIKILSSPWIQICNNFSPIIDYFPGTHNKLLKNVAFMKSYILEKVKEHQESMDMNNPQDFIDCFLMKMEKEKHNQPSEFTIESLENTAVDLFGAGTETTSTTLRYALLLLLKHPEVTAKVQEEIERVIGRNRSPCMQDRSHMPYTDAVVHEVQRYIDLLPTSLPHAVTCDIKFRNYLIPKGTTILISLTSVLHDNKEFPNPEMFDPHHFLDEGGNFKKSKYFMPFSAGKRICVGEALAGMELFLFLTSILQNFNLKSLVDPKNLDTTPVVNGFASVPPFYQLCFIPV

Compound	IC50 (CYP2C9)	IC50 (UGT1A1)	IC50 at 10 min [1]	selectivity ratio at 10 min [2]
O=c1cc(-c2ccc(O)c(-c3c(O)cc(O)c4c(=O)cc(-c5ccc(O)cc5)oc34)c2)oc2cc(O)cc(O)c12 [amentoflavone]	35 nM	1700 nM		
CC(C)(O)c1ccccc1CC[C@@H](SCC1(CC(=O)O)CC1)c1cccc(/C=C/c2ccc3ccc(Cl)cc3n2)c1 [montelukast, reference compound]			> 9730 nM	
O=C1CC(c2cc(-c3c(O)ccc4c(=O)cc(-c5ccc(O)cc5)oc34)c(O)cc2O)Oc2cc(O)cc(O)c21 (centres unmarked) [selamariscina A]		1700 ± 500 nM		> 50
